{"source": "patent US20070140897A1", "about": "“PH STABLE BIGUANIDE COMPOSITION AND METHOD OF TREATMENT AND PREVENTION OF INFECTIONS” (priority 2005, published 2007)", "key": {"[1]": {"tested_on": "acantamoeba cysts and trophazoites", "settings": "cited from earlier work"}, "[2]": {"experiment": "Pharmacokinetics after single topical ocular dose 10 μg/eye (BL06029)", "type": "in vivo, rabbit", "settings": "single dose 10 μg/eye (BL06029); for Cmax / Tmax: rabbit, topical or ocular, 10 ug"}, "[3]": {"experiment": "Loss of Alexidine due to non-specific binding to glass vial at different pH", "type": "physicochemical", "settings": "20 ppm, two weeks", "description": "Alexidine sample solutions (20 ppm) were prepared at different pHs and quantitative amount were stored in glass vial for two weeks. At the end of storage, the sample solution was removed and thoroughly rinsed with distilled water. The empty sample vials were then rinsed with 0.1 N HCl solution. The concentration of Alexidine in the acid solution was determined by HPLC assay and the amount recovered from glass wall was calculated in Table 1."}, "[4]": {"experiment": "Anterior ocular and systemic pharmacokinetics after repeated topical ocular administration (TID, 10 doses)", "type": "in vivo, male New Zealand Composite rabbits", "settings": "for AUC(0-24) / DNAUC(0-24) / Cmax / Tmax: TID dosing (dose 10), 10 μg/eye; for Cmax / Tmax: topical or ocular, 10 ug", "description": "This study was to investigate anterior ocular and systemic pharmacokinetics of alexidine following repeated topical ocular administration (3 doses/day; 10 doses total) of a 100 ppm solution to male New Zealand Composite rabbits.\nThis study was carried out using a non-crossover design and a total of 52 naïve male New Zealand Composite rabbits. Each animal (fed) received a topical ocular dose of alexidine at approximately 7 am, 12 noon and 5 pm on Day 1, Day 2 and Day 3. On the morning of Day 4, each animal received the final (10th) topical ocular dose. For each dose administration, animals received approximately 100 μL of a 100 ppm solution (10 μg dose) as a topical instillation into the conjunctival sac of each eye using a positive-displacement pipette.\nOn Day 4, rabbits (n=4 per collection time) were euthanized and the eyes enucleated and dissected. Samples of blood (centrifuged to obtain plasma), tear, conjunctiva, cornea, and aqueous humor were obtained from both eyes of each animal. Samples were collected prior to administration of the final dose, and 5, 15, and 30 min and 1, 2, 4, 8, 24, 32, 48, 56, and 72 hr after dosing. Non-compartmental methods were used for pharmacokinetic analysis of concentration versus time data. Due to the destructive sampling regimen employed in this study average composite data were used in the pharmacokinetic analysis.\nAbbreviations used in this diagram are as follows. Cmax is defined as the maximum mean concentration attained after topical instillation (±SD). Tmax is the time that Cmax was observed."}, "[5]": {"tested_on": "Aspergillus keratitis", "settings": "0.02%; cited from earlier work"}, "[6]": {"tested_on": "Acanthamoeba keratitis", "settings": "case report, recurrence in corneal graft; cited from earlier work"}, "[7]": {"tested_on": "Fusarium Keratomycosis", "settings": "0.02% solution, rabbit model; cited from earlier work"}, "[8]": {"settings": "male, New Zealand Composite, rabbit, Conjunctiva"}, "[9]": {"settings": "male, New Zealand Composite, rabbit, Cornea"}}, "data": [{"compound": "CCCCC(CC)CNC(=N)NC(=N)NCCCCCCNC(=N)NC(=N)NCC(CC)CCCC", "note": "(stereo not drawn) [Alexidine, 1,1′-hexamethylene-bis[5-(2-ethylhexyl)biguanide]]", "values": [{"measurement": "minimum inhibitory concentration", "setting": "[1]", "value": 6.3, "unit": "µg/mL"}, {"measurement": "levels in aqueous humor", "setting": "[2]; Aq. Humor", "value": "No Quantifiable levels (<0.5 ng/mL)"}, {"measurement": "AUC(0-24)", "setting": "[2]; Conjunctiva", "value": 5697, "unit": "µg·min/g"}, {"measurement": "DNAUC(0-24)", "setting": "[2]; Conjunctiva", "value": "570 (min · ug/g) ÷ ug"}, {"measurement": "AUC(0-24)", "setting": "[2]; Cornea", "value": 557, "unit": "µg·min/g"}, {"measurement": "DNAUC(0-24)", "setting": "[2]; Cornea", "value": "55.7 (min · ug/g) ÷ ug"}, {"measurement": "levels in plasma", "setting": "[2]; Plasma", "value": "No Quantifiable levels (<0.5 ng/mL)"}, {"measurement": "Cmax", "setting": "[2]; Conjunctiva", "value": 6440, "unit": "ng/g"}, {"measurement": "Tmax", "setting": "[2]; Conjunctiva", "value": 480, "unit": "min"}, {"measurement": "Cmax", "setting": "[2]; Cornea", "value": 997, "unit": "ng/g"}, {"measurement": "Tmax", "setting": "[2]; Cornea", "value": 15, "unit": "min"}, {"measurement": "% Adsorbed on Glass Vial", "setting": "[3]; pH 3", "value": 1.0, "unit": "%"}, {"measurement": "% Adsorbed on Glass Vial", "setting": "[3]; pH 5", "value": 4.0, "unit": "%"}, {"measurement": "% Adsorbed on Glass Vial", "setting": "[3]; pH 7", "value": 7.5, "unit": "%"}, {"measurement": "% Adsorbed on Glass Vial", "setting": "[3]; pH 9", "value": 12.5, "unit": "%"}, {"measurement": "% Adsorbed on Glass Vial", "setting": "[3]; pH 11", "value": 23.5, "unit": "%"}, {"measurement": "AUC(0-24)", "setting": "[4]; Conjunctiva", "value": 11461, "unit": "µg·min/g"}, {"measurement": "DNAUC(0-24)", "setting": "[4]; Conjunctiva", "value": "1146 (min · ug/g) ÷ ug"}, {"measurement": "AUC(0-24)", "setting": "[4]; Cornea", "value": 2727, "unit": "µg·min/g"}, {"measurement": "DNAUC(0-24)", "setting": "[4]; Cornea", "value": "273 (min · ug/g) ÷ ug"}, {"measurement": "mean concentrations in conjunctiva", "setting": "[4]; at all times through the 72 hr after the final 10-μg dose", "value": "≥ 5100", "unit": "ng/g"}, {"measurement": "AUC(0-t)", "setting": "[4]; male, New Zealand Composite, rabbit, conjunctiva, topical, repeated administration of a 10-μg dose, value used for AUC:MIC90 ratio, read-out: AUC(0-24)", "value": 191, "unit": "µg·h/mL"}, {"measurement": "Cmax", "setting": "[4]; [8]", "value": "15100 ± 4120", "unit": "ng/g"}, {"measurement": "Tmax", "setting": "[4]; [8]", "value": 5, "unit": "min"}, {"measurement": "Cmax", "setting": "[4]; [9]", "value": "3740 ± 1790", "unit": "ng/g"}, {"measurement": "Tmax", "setting": "[4]; [9]", "value": 30, "unit": "min"}, {"measurement": "tolerability", "setting": "[4]; repeated administration of a 100 ppm solution, topical ocular", "value": "well tolerated in all animals"}]}, {"compound": "poly(hexamethylene biguanide) [PHMB]", "values": [{"measurement": "effectiveness in experimental Aspergillus keratitis", "setting": "[5]", "value": "moderately effective"}, {"measurement": "treatment of recurrences of Acanthamoeba keratitis", "setting": "[6]", "value": "successfully treated"}, {"measurement": "reducing fungal growth", "setting": "[7]", "value": "effective at reducing fungal growth"}]}]}
